How the values were obtained:
[1] = Crystal form after drying under reduced pressure (powder X-ray diffraction); type: physicochemical
Experimental: The amorphous powder of Compound 1 (10.7 mg) was dissolved in 2-propanol (32.1 μL), and about 0.1 mg of the crystal obtained in Example 3-1 was added. Thereafter, heptane ([…]) was added, and the mixture was shaken at room temperature for 3 hours. Furthermore, heptane (21.4 μL) was added, and after shaking at room temperature for 2 hours, heptane (21.4 μL) was added and the mixture was shaken at room temperature for 3 hours. Heptane (21.4 μL) was further added, and the mixture was shaken at room temperature for 15 hours, thereby obtaining a crystal (form E) of compound 1. Single crystal X-ray structural analysis was performed on the obtained crystal (Example 4-8), and it was confirmed to be a 2-propanol/heptane/water solvate. […] The obtained crystal (form E) was dried under reduced pressure, and powder X-ray diffraction measurement was performed (Example 4-3).
The amorphous powder of Compound 1 (9.0 mg) was dissolved in ethanol (27.0 μL), heptane (27.0 μL) was added, and the mixture was shaken at room temperature for 4 minutes. About 0.1 mg of the crystal obtained in Example 3-4 was added, and the mixture was shaken at room temperature for 1 minute to obtain a crystal of compound 1. Single crystal X-ray structural analysis was performed (Example 4-9), confirming that the obtained crystal is an ethanol/water solvate crystal (form H). […] The obtained crystal (form H) was dried under reduced pressure, and powder X-ray diffraction measurement was performed (Example 4-3).
The amorphous powder of Compound 1 (10.9 mg) was dissolved in ethyl acetate (32.7 μL), heptane (32.7 μL) was added, and the mixture was shaken at room temperature for 4 minutes. About 0.1 mg of the crystal obtained in Example 3-5 was added, and the mixture was shaken at room temperature for 1 minute, thereby obtaining a crystal of compound 1. Single crystal X-ray structural analysis was performed (Example 4-9), confirming that the obtained crystal is an ethyl acetate/water solvate crystal (form C). […] The obtained crystal (form C) was dried under reduced pressure, and powder X-ray diffraction measurement was performed (Example 4-3).
The crystal (form A, 6.8 mg) of compound 1 obtained in Example 3-8 was dissolved in dimethyl sulfoxide (0.12 mL), and the mixture was shaken and stirred at room temperature for 13 days. Furthermore, water (1 μL) was added and the mixture was stirred at room temperature for 34 days to obtain a crystal of compound 1. The obtained crystal was confirmed to be a dimethyl sulfoxide/water solvate crystal (form L) by single crystal X-ray structural analysis (Example 4-8). […] Powder X-ray diffraction measurement (Example 4-3) on the crystal obtained by performing the same procedure confirmed that the form L is a solvate crystal that is amorphized by drying under reduced pressure.
To the crystal (form B, 45.8 mg) of compound 1, propylene glycol (0.12 mL) was added, and the mixture was stirred at room temperature for 5 minutes. Furthermore, propylene glycol (0.020 mL) was added, and the mixture was stirred at 40° C. for 5 minutes. Thereafter, propylene glycol (0.070 mL) was added, the mixture was stirred at 40° C. for 5 minutes and further allowed to stand still for 5 hours. Propylene glycol (0.070 mL) was further added, and the mixture was stirred at 35° C. for overnight. Then, propylene glycol (0.070 mL) was added and the mixture was stirred for about 1 minute to obtain a wet powder of compound 1. […]

[2] = Thermogravimetry-differential thermal analysis (TG-DTA); type: physicochemical; details: 10° C./min, nitrogen, at 157° C., Example 3-17
Experimental: The thermogravimetry-differential thermal analysis (TG-DTA) for Example 3-8, Example 3-9, Example 3-12, Example 3-13, Example 3-17, and Example 3-19 was performed under the following conditions. • Measurement apparatus: STA7200RV+AS-3T (manufactured by Hitachi High-Tech Science Corporation) • Measurement range: 30 to 350° C. • Heating rate: 10° C./min • Atmosphere: nitrogen • Measurement: The sample was weighed in an open aluminum pan and covered with a mesh to perform the measurement.

| Structure (SMILES) | transformation after drying under reduced pressure ([1]; drying under reduced pressure) | other results |
| --- | --- | --- |
| CCC[C@H]1C(=O)N[C@@H]([C@@H](C)CC)C(=O)N2CCC[C@H]2C(=O)N(C)[C@H]2C/C=C\CCN(C2=O)[C@@H](Cc2ccc(C(F)(F)F)cc2)C(=O)N(C)CC(=O)N[C@@H](CCc2ccc(C(F)(F)F)c(OC)c2)C(=O)N2C[C@H](OCC)C[C@H]2C(=O)N(C)C2(CCC2)C(=O)N(C)[C@@H](C2CCCC2)C(=O)N(C)[C@H](C(=O)N(C)C)CC(=O)N1C [form C] | transformed into the hydrate crystal (form B) |  |
| CCC[C@H]1C(=O)N[C@@H]([C@@H](C)CC)C(=O)N2CCC[C@H]2C(=O)N(C)[C@H]2C/C=C\CCN(C2=O)[C@@H](Cc2ccc(C(F)(F)F)cc2)C(=O)N(C)CC(=O)N[C@@H](CCc2ccc(C(F)(F)F)c(OC)c2)C(=O)N2C[C@H](OCC)C[C@H]2C(=O)N(C)C2(CCC2)C(=O)N(C)[C@@H](C2CCCC2)C(=O)N(C)[C@H](C(=O)N(C)C)CC(=O)N1C [form E] | transformed into the hydrate crystal (form A) |  |
| CCC[C@H]1C(=O)N[C@@H]([C@@H](C)CC)C(=O)N2CCC[C@H]2C(=O)N(C)[C@H]2C/C=C\CCN(C2=O)[C@@H](Cc2ccc(C(F)(F)F)cc2)C(=O)N(C)CC(=O)N[C@@H](CCc2ccc(C(F)(F)F)c(OC)c2)C(=O)N2C[C@H](OCC)C[C@H]2C(=O)N(C)C2(CCC2)C(=O)N(C)[C@@H](C2CCCC2)C(=O)N(C)[C@H](C(=O)N(C)C)CC(=O)N1C [form H] | transformed into the hydrate crystal (form B) |  |
| CCC[C@H]1C(=O)N[C@@H]([C@@H](C)CC)C(=O)N2CCC[C@H]2C(=O)N(C)[C@H]2C/C=C\CCN(C2=O)[C@@H](Cc2ccc(C(F)(F)F)cc2)C(=O)N(C)CC(=O)N[C@@H](CCc2ccc(C(F)(F)F)c(OC)c2)C(=O)N2C[C@H](OCC)C[C@H]2C(=O)N(C)C2(CCC2)C(=O)N(C)[C@@H](C2CCCC2)C(=O)N(C)[C@H](C(=O)N(C)C)CC(=O)N1C [form L] | amorphized |  |
| CCC[C@H]1C(=O)N[C@@H]([C@@H](C)CC)C(=O)N2CCC[C@H]2C(=O)N(C)[C@H]2C/C=C\CCN(C2=O)[C@@H](Cc2ccc(C(F)(F)F)cc2)C(=O)N(C)CC(=O)N[C@@H](CCc2ccc(C(F)(F)F)c(OC)c2)C(=O)N2C[C@H](OCC)C[C@H]2C(=O)N(C)C2(CCC2)C(=O)N(C)[C@@H](C2CCCC2)C(=O)N(C)[C@H](C(=O)N(C)C)CC(=O)N1C [form M] |  | transformation after drying under reduced pressure ([1]; dried under reduced pressure at room temperature for overnight): transformed into a form N crystal |
| CCC[C@H]1C(=O)N[C@@H]([C@@H](C)CC)C(=O)N2CCC[C@H]2C(=O)N(C)[C@H]2C/C=C\CCN(C2=O)[C@@H](Cc2ccc(C(F)(F)F)cc2)C(=O)N(C)CC(=O)N[C@@H](CCc2ccc(C(F)(F)F)c(OC)c2)C(=O)N2C[C@H](OCC)C[C@H]2C(=O)N(C)C2(CCC2)C(=O)N(C)[C@@H](C2CCCC2)C(=O)N(C)[C@H](C(=O)N(C)C)CC(=O)N1C [form N] |  | weight reduction [2]: about 11% |

— US20260337231A1, “METHOD FOR PRODUCING CYCLIC PEPTIDE COMPOUND” (CHUGAI SEIYAKU KABUSHIKI KAISHA, priority 2023, published 2026)
